{"source": "patent US20260373248A1", "about": "“DEGRADABLE PEPTOIDS” (Medici Therapeutics, Inc., priority 2023, published 2026)", "key": {"[1]": {"experiment": "Delivery vehicle size and polydispersity by dynamic light scattering", "format": "physicochemical", "settings": "DLS in PBS; peptoid:DSPC:Cholesterol:DMG-PEG2000 weight ratio 20:1.79:7.16:1.84, mRNA", "method_in_brief": "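Dynamic light scattering in PBS gave size and polydispersity of peptoid LNPs. These were dialyzed overnight at 4 °C into tris-sucrose buffer pH 7.4 after microfluidic 1:3 volume mixing of mRNA in pH 5.0 citrate with ethanol lipids (peptoid:DSPC:cholesterol:DMG-PEG2000 20:1.79:7.16:1.84 w/w).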"}, "[2]": {"experiment": "Peptoid quantity remaining in liver by HPLC-TOF mass spectrometry", "format": "in vivo", "settings": "liver homogenate", "method_in_brief": "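Whole liver weighed; 20 mg tissue bead-homogenized in IPA/MeOH (8/2) with internal standard, centrifuged, supernatant run on BEH C8 HPLC-TOF MS. Peptoid concentration derived from linear calibration curve (0.2-50 μg/g) prepared in spiked untreated liver.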"}, "[3]": {"test_system": "hEPO", "experiment": "Quantification of hEPO in serum after IV injection of mRNA (Human EPO ELISA)", "format": "in vivo", "settings": "Balb/c mice, 2.5 μg mRNA IV, serum after 6 hours", "method_in_brief": "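Balb/c mice received 2.5 μg mRNA encoding human EPO by IV injection; serum was collected after 6 hours. hEPO was measured by sandwich ELISA (biotin-conjugate, streptavidin-HRP, TMB, A450) against kit standards (mIU/mL) and an external standard (ng/mL), with values interpolated and corrected for dilution.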"}, "[4]": {"test_system": "luciferase", "experiment": "Luciferase expression after local (intramuscular or subcutaneous) administration of mRNA", "format": "in vivo", "settings": "mRNA 0.01 mpk, 6 hours; for IM Flux: intramuscular; for SC Flux: subcutaneous", "method_in_brief": "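Bioluminescence read 6 hours after fLuc mRNA dosing (peptoid Nutshells; 0.01 mpk S.C. or I.M., 0.1 mpk intratumoral) in female Balb/c mice aged 6-8 weeks. D-luciferin injected IP, whole-body imaging after 10 minutes, then organ imaging; total photon flux per region of interest.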"}, "[5]": {"test_system": "firefly luciferase", "experiment": "In vivo firefly luciferase expression after intravenous injection of fLuc mRNA delivery vehicles (IVIS imaging)", "parameters": "species or system female Balb/c mice", "settings": "mice, 2.5 ug fLuc mRNA intravenously, 6 hours post-injection", "method_in_brief": "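Read-out is total photon flux per region of interest, from whole-body IVIS images taken 10 minutes after IP D-luciferin (30 mg/mL, 10 μL/g) and from excised organs. Female Balb/c mice aged 6-8 weeks received 2.5 ug fLuc mRNA Nutshells intravenously 6 hours before imaging.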"}, "[6]": {"test_system": "mRNA", "experiment": "mRNA encapsulation (modified Quant-iT RiboGreen assay)", "format": "physicochemical", "settings": "RiboGreen, without vs with Triton X-100", "method_in_brief": "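Encapsulated fraction was calculated by comparing RiboGreen signal (excitation 485 nm, emission 530 nm) of intact particles with that of particles lysed by a 10-min Triton X-100 treatment. Total mRNA concentration was taken from the lysed samples.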"}}, "note": "Non-standard residues stand in square brackets, D forms with d. Residues, ends and D or L forms follow the SMILES beside them. *: point of attachment. N(3-lauroyloxypropyl)Gly = CCCCCCCCCCCC(=O)OCCCNCC(=O)O; N(3-imidazol-1-ylpropyl)Gly = O=C(O)CNCCCn1ccnc1; Gly(N-3-morpholinopropyl) = O=C(O)CNCCCN1CCOCC1; N(2-ethylhexyl)Gly = CCCCC(CC)CNCC(=O)O; NHexGly = CCCCCCNCC(=O)O; For = O=C*", "data": [{"smiles": "CCCCCCCCCCCC(=O)OCCCN(CC(=O)N(CC(=O)N(CC(=O)N(CCCOC(=O)CCCCCCCCCCC)CC(=O)N(CC(N)=O)CC(CC)CCCC)CC(CC)CCCC)CC(CC)CCCC)C(=O)CN(CC(CC)CCCC)C(=O)CN(C=O)CCCN1CCOCC1", "note": "(centres unmarked) [Compound 64] (For-[Gly(N-3-morpholinopropyl)][N(2-ethylhexyl)Gly][N(3-lauroyloxypropyl)Gly][N(2-ethylhexyl)Gly][N(2-ethylhexyl)Gly][N(3-lauroyloxypropyl)Gly][N(2-ethylhexyl)Gly]-NH2)", "values": [{"measurement": "PDI", "setting": "[1]", "result": 0.096}, {"measurement": "Particle Size", "setting": "[1]", "result": 77.8, "unit": "nm"}, {"measurement": "% of injected dose remaining in liver", "setting": "[2]", "result": 5.30, "unit": "%"}, {"measurement": "hEPO", "setting": "[3]", "result": 87, "unit": "ng/mL"}, {"measurement": "IM Flux", "setting": "[4]", "result": "1.42E+08", "unit": "p/s"}, {"measurement": "SC Flux", "setting": "[4]", "result": "1.33E+08", "unit": "p/s"}, {"measurement": "Total Flux", "setting": "[5]", "result": "6.54E+08", "unit": "p/s"}, {"measurement": "mean percent encapsulation of RNA", "setting": "[6]", "result": 67.3, "unit": "%"}]}, {"smiles": "CCCCCCCCCCCC(=O)OCCN(CC(=O)N(CCOC(=O)CCCCCCCCCCC)CC(=O)N(CC(=O)N(CCOC(=O)CCCCCCCCCCC)CC(=O)N(CCOC(=O)CCCCCCCCCCC)CC(=O)N(CC(N)=O)CC(CC)CCCC)CC(CC)CCCC)C(=O)CN(C=O)CCCN1CCOCC1", "note": "(centres unmarked) [Compound 65]", "values": [{"measurement": "PDI", "setting": "[1]", "result": 0.248}, {"measurement": "Particle Size", "setting": "[1]", "result": 91.4, "unit": "nm"}, {"measurement": "% of injected dose remaining in liver", "setting": "[2]", "result": 14.67, "unit": "%"}, {"measurement": "hEPO", "setting": "[3]", "result": 77.7, "unit": "ng/mL"}, {"measurement": "IM Flux", "setting": "[4]", "result": "8.99E+08", "unit": "p/s"}, {"measurement": "SC Flux", "setting": "[4]", "result": "2.00E+08", "unit": "p/s"}, {"measurement": "Total Flux", "setting": "[5]", "result": "8.68E+08", "unit": "p/s"}, {"measurement": "mean percent encapsulation of RNA", "setting": "[6]", "result": 39.1, "unit": "%"}]}, {"smiles": "CCCCCCCCCCCC(=O)OCCCN(CC(=O)N(CC(=O)N(CCCCCC)CC(=O)N(CCCOC(=O)CCCCCCCCCCC)CC(=O)N(CC(=O)N(CCCCCC)CC(N)=O)CC(CC)CCCC)CC(CC)CCCC)C(=O)CN(C=O)CCCN1CCOCC1", "note": "(centres unmarked) [Compound 70] (For-[Gly(N-3-morpholinopropyl)][N(3-lauroyloxypropyl)Gly][N(2-ethylhexyl)Gly][NHexGly][N(3-lauroyloxypropyl)Gly][N(2-ethylhexyl)Gly][NHexGly]-NH2)", "values": [{"measurement": "PDI", "setting": "[1]", "result": 0.082}, {"measurement": "Particle Size", "setting": "[1]", "result": 101.3, "unit": "nm"}, {"measurement": "% of injected dose remaining in liver", "setting": "[2]", "result": 8.06, "unit": "%"}, {"measurement": "hEPO", "setting": "[3]", "result": 201, "unit": "ng/mL"}, {"measurement": "IM Flux", "setting": "[4]", "result": "4.46E+06", "unit": "p/s"}, {"measurement": "SC Flux", "setting": "[4]", "result": "2.02E+08", "unit": "p/s"}, {"measurement": "Total Flux", "setting": "[5]", "result": "1.04E+09", "unit": "p/s"}, {"measurement": "mean percent encapsulation of RNA", "setting": "[6]", "result": 77.2, "unit": "%"}]}, {"smiles": "CCCCCCCCCCCC(=O)OCCCN(CC(=O)N(CC(=O)N(CCCCCC)CC(=O)N(CCCOC(=O)CCCCCCCCCCC)CC(=O)N(CC(=O)N(CCCCCC)CC(N)=O)CC(CC)CCCC)CC(CC)CCCC)C(=O)CNCCCn1ccnc1", "note": "(centres unmarked) [Compound 72] (H-[N(3-imidazol-1-ylpropyl)Gly][N(3-lauroyloxypropyl)Gly][N(2-ethylhexyl)Gly][NHexGly][N(3-lauroyloxypropyl)Gly][N(2-ethylhexyl)Gly][NHexGly]-NH2)", "values": [{"measurement": "PDI", "setting": "[1]", "result": 0.139}, {"measurement": "Particle Size", "setting": "[1]", "result": 106.8, "unit": "nm"}, {"measurement": "% of injected dose remaining in liver", "setting": "[2]", "result": 11.32, "unit": "%"}, {"measurement": "hEPO", "setting": "[3]", "result": 36, "unit": "ng/mL"}, {"measurement": "IM Flux", "setting": "[4]", "result": "9.25E+06", "unit": "p/s"}, {"measurement": "SC Flux", "setting": "[4]", "result": "3.73E+07", "unit": "p/s"}, {"measurement": "Total Flux", "setting": "[5]", "result": "1.71E+08", "unit": "p/s"}, {"measurement": "mean percent encapsulation of RNA", "setting": "[6]", "result": 89.2, "unit": "%"}]}]}
